US9326506B2, “Preparation method, agricultural composition and applications of natural brassinolide analogs” (CHENGDU NEWSUN CROPSCIENCE CO., LTD, priority 2012, dated 2016)

System: rice
Experiment: Low temperature assay on rice seedlings
Format: in vivo
Protocol: According to a low temperature assay, we measured parameters including plant height, number of leaf, area of leaf, number of tiller, weight of root at low temperature to completely determine effects of the natural brassinolide analogues on the resistance to low temperature of a plant.
The natural brassinolide analogues, BR1, BR2, BR3, BR4, BR5 and BR6, used herein, were those prepared by the method of Example 1. Respectively the analogues were dissolved into 95% (V/V) ethanol solution, and then diluted with pure water to 1 mg/L, 0.1 mg/L, 0.01 mg/L, 0.001 mg/L and 0.0001 mg/L. In addition, pure water was used as a control.
After rice seeds were disinfected by using 5% sodium hypochlorite solution treatment, they were rinsed with distilled water until their pH>7, placed into a petri dish in a dark incubator, and cultured by using water at 30° C.±2° C. for 9 days. Then respectively the nine-day-old etiolated seedlings of rice were immersed in the above solutions containing different concentrations of the natural brassinolide analogues or pure water, and cultured at the temperature of 1° C., 2° C., 3° C., 4° C. and 5° C. for 24 hr. The parameters including plant height, area of leaf and weight of root after 3, 6, 9 and 12 days and number of leaf and number of tiller after 12 days were measured.

SMILES: CC(C)C[C@@H](O)[C@H](O)[C@@H](C)[C@H]1CCC2C3CC(=O)C4C[C@H](O)[C@H](O)C[C@]4(C)C3CC[C@@]21C (stereo partly shown) [BR5]
- Number of leaf (0.1 mg/l, 4 °C, 12 days): 3
- Number of tiller (0.1 mg/l, 4 °C, 12 days): 2
- Weight of root (0.1 mg/l, 4 °C, 12 days): 3 g
- Area of leaf (0.1 mg/l, 5 °C, 3 days): 11 cm^2
- Height (0.1 mg/l, 5 °C, 3 days): 7.5 cm
- Weight of root (0.1 mg/l, 5 °C, 3 days): 2.9 g
- Area of leaf (0.1 mg/l, 5 °C, 6 days): 12.9 cm^2
- Height (0.1 mg/l, 5 °C, 6 days): 7.6 cm
- Weight of root (0.1 mg/l, 5 °C, 6 days): 3.2 g
- Area of leaf (0.1 mg/l, 5 °C, 9 days): 16.8 cm^2
- Height (0.1 mg/l, 5 °C, 9 days): 8 cm
- Weight of root (0.1 mg/l, 5 °C, 9 days): 3.5 g
- Area of leaf (0.1 mg/l, 5 °C, 12 days): 19 cm^2
- Height (0.1 mg/l, 5 °C, 12 days): 8.3 cm
- Number of leaf (0.1 mg/l, 5 °C, 12 days): 3
- Number of tiller (0.1 mg/l, 5 °C, 12 days): 2
- Weight of root (0.1 mg/l, 5 °C, 12 days): 4.1 g
- Area of leaf (1 mg/l, 1 °C, 3 days): 10 cm^2
- Height (1 mg/l, 1 °C, 3 days): 7.0 cm
- Weight of root (1 mg/l, 1 °C, 3 days): 2.6 g
- Area of leaf (1 mg/l, 1 °C, 6 days): 11.2 cm^2
- Height (1 mg/l, 1 °C, 6 days): 7.3 cm
- Weight of root (1 mg/l, 1 °C, 6 days): 3.1 g
- Area of leaf (1 mg/l, 1 °C, 9 days): 12.4 cm^2
- Height (1 mg/l, 1 °C, 9 days): 7.3 cm
- Weight of root (1 mg/l, 1 °C, 9 days): 3.1 g
- Area of leaf (1 mg/l, 1 °C, 12 days): 13 cm^2
- Height (1 mg/l, 1 °C, 12 days): 7.9 cm
- Number of leaf (1 mg/l, 1 °C, 12 days): 3
- Number of tiller (1 mg/l, 1 °C, 12 days): 3
- Weight of root (1 mg/l, 1 °C, 12 days): 3.7 g
- Area of leaf (1 mg/l, 2 °C, 3 days): 10.2 cm^2
- Height (1 mg/l, 2 °C, 3 days): 7.1 cm
- Weight of root (1 mg/l, 2 °C, 3 days): 2.6 g
- Area of leaf (1 mg/l, 2 °C, 6 days): 11.7 cm^2
- Height (1 mg/l, 2 °C, 6 days): 7.2 cm
- Weight of root (1 mg/l, 2 °C, 6 days): 3.0 g
- Area of leaf (1 mg/l, 2 °C, 9 days): 12.6 cm^2
- Height (1 mg/l, 2 °C, 9 days): 7.2 cm
- Weight of root (1 mg/l, 2 °C, 9 days): 3.2 g
- Area of leaf (1 mg/l, 2 °C, 12 days): 12.8 cm^2
- Height (1 mg/l, 2 °C, 12 days): 7.8 cm
- Number of leaf (1 mg/l, 2 °C, 12 days): 3
- Number of tiller (1 mg/l, 2 °C, 12 days): 3
- Weight of root (1 mg/l, 2 °C, 12 days): 3.7 g
- Area of leaf (1 mg/l, 3 °C, 3 days): 10.4 cm^2
- Height (1 mg/l, 3 °C, 3 days): 7.2 cm
- Weight of root (1 mg/l, 3 °C, 3 days): 2.5 g
- Area of leaf (1 mg/l, 3 °C, 6 days): 12 cm^2
- Height (1 mg/l, 3 °C, 6 days): 7.5 cm
- Weight of root (1 mg/l, 3 °C, 6 days): 2.6 g
- Area of leaf (1 mg/l, 3 °C, 9 days): 12.1 cm^2
- Height (1 mg/l, 3 °C, 9 days): 7.6 cm
- Weight of root (1 mg/l, 3 °C, 9 days): 2.8 g
- Area of leaf (1 mg/l, 3 °C, 12 days): 13 cm^2
- Height (1 mg/l, 3 °C, 12 days): 8.1 cm
- Number of leaf (1 mg/l, 3 °C, 12 days): 3
- Number of tiller (1 mg/l, 3 °C, 12 days): 2
- Weight of root (1 mg/l, 3 °C, 12 days): 2.9 g
- Area of leaf (1 mg/l, 4 °C, 3 days): 10.9 cm^2
- Height (1 mg/l, 4 °C, 3 days): 7.2 cm
- Weight of root (1 mg/l, 4 °C, 3 days): 2.5 g
- Area of leaf (1 mg/l, 4 °C, 6 days): 12.6 cm^2
- Height (1 mg/l, 4 °C, 6 days): 7.5 cm
- Weight of root (1 mg/l, 4 °C, 6 days): 2.7 g
- Area of leaf (1 mg/l, 4 °C, 9 days): 13.2 cm^2
- Height (1 mg/l, 4 °C, 9 days): 7.8 cm
- Weight of root (1 mg/l, 4 °C, 9 days): 3.1 g
- Area of leaf (1 mg/l, 4 °C, 12 days): 13.4 cm^2
- Height (1 mg/l, 4 °C, 12 days): 8.2 cm
- Number of leaf (1 mg/l, 4 °C, 12 days): 3
- Number of tiller (1 mg/l, 4 °C, 12 days): 2
- Weight of root (1 mg/l, 4 °C, 12 days): 3.2 g
- Area of leaf (1 mg/l, 5 °C, 3 days): 11.1 cm^2
- Height (1 mg/l, 5 °C, 3 days): 7.3 cm
- Weight of root (1 mg/l, 5 °C, 3 days): 2.9 g
- Area of leaf (1 mg/l, 5 °C, 6 days): 13.1 cm^2
- Height (1 mg/l, 5 °C, 6 days): 7.7 cm
- Weight of root (1 mg/l, 5 °C, 6 days): 3.5 g
- Area of leaf (1 mg/l, 5 °C, 9 days): 18 cm^2
- Height (1 mg/l, 5 °C, 9 days): 8 cm
- Weight of root (1 mg/l, 5 °C, 9 days): 3.6 g
- Area of leaf (1 mg/l, 5 °C, 12 days): 20 cm^2
- Height (1 mg/l, 5 °C, 12 days): 8.4 cm
- Number of leaf (1 mg/l, 5 °C, 12 days): 3
- Number of tiller (1 mg/l, 5 °C, 12 days): 2
- Weight of root (1 mg/l, 5 °C, 12 days): 4.5 g
- Effects on resistance to low temperature compared among analogues (in vivo): more than those of BR2, BR3 and BR4
